The results in this text go back to PubChem BioAssay AID330 (DTP/NCI, 2004).

For the assay, the system named is P388 leukemia ip, CD2F1 mice, survival T/C. The assay can be described thus: NCI In Vivo Anticancer Drug Screen. Data for tumor model P388 Leukemia (intraperitoneal) in CD2F1 (CDF1) mice. The conditions noted are these: endpoint: median survival time, higher = longer survival. The gist of the method: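 Mice carrying the transplanted tumor received test compound or vehicle. Survival was recorded in each group, and the value is the treated-group measurement divided by that of the vehicle-treated control group.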

[1] abbreviates: dose: 50.0 mg/kg/injection, schedule: Q01DX009 (ip), vehicle: Klucel (hydroxypropylcellulose) (HPC).
[2] abbreviates: dose: 100.0 mg/kg/injection, schedule: Q01DX009 (ip), vehicle: Klucel (hydroxypropylcellulose) (HPC).
The mark [3] stands for this setting: dose: 100.0 mg/kg/injection, schedule: Q04DX002 (ip), vehicle: saline with Tween-80.
[4] abbreviates: dose: 50.0 mg/kg/injection, schedule: Q01DX005 (ip), vehicle: Klucel (hydroxypropylcellulose) (HPC).
Setting [5] is: dose: 100.0 mg/kg/injection, schedule: Q01DX005 (ip), vehicle: Klucel (hydroxypropylcellulose) (HPC).
Where [6] appears, read: dose: 200.0 mg/kg/injection, schedule: Q01DX005 (ip), vehicle: Klucel (hydroxypropylcellulose) (HPC).
[7] abbreviates: dose: 50.0 mg/kg/injection, schedule: Q01DX009 (ip), vehicle: saline.
Where [8] appears, read: dose: 100.0 mg/kg/injection, schedule: Q01DX009 (ip), vehicle: saline.
Setting [9] is: dose: 200.0 mg/kg/injection, schedule: Q01DX009 (ip), vehicle: saline.

SMILES strings stand for the structures. Several values for one entry are separate records, joined by “and”; a condition that tells them apart may be missing. Identical values can stand only once. Inconclusive results and toxic doses are left out.

With `CN(C)CCCOC1=Nc2ccccc2O/C1=C/c1cccs1`, the T/C (dose: 25.0 mg/kg/injection, schedule: Q04DX003 (ip), vehicle: saline) is 94 % of control; the T/C (dose: 50.0 mg/kg/injection, schedule: Q04DX003 (ip), vehicle: saline) was 94 % of control; the T/C (dose: 100.0 mg/kg/injection, schedule: Q04DX003 (ip), vehicle: saline) is 100 % of control and 94 % of control.
As to `COC(=O)CC(c1ccc(OC)cc1)c1cc2c(cc1OC)OCO2` (stereo not given), the T/C is 97 % of control (dose: 50.0 mg/kg/injection, schedule: Q01DX005 (ip), vehicle: distilled water + Tween-80); 97 % of control (dose: 100.0 mg/kg/injection, schedule: Q01DX005 (ip), vehicle: distilled water + Tween-80); 97 % of control (dose: 200.0 mg/kg/injection, schedule: Q01DX005 (ip), vehicle: distilled water + Tween-80).
Regarding `CN1CCN(C(=O)/C(=C/c2ccccc2)NC(=O)c2ccccc2)CC1`, the T/C (dose: 50.0 mg/kg/injection, schedule: Q01DX005 (ip), vehicle: saline with Tween-80) is 96 % of control; the T/C (dose: 100.0 mg/kg/injection, schedule: Q01DX005 (ip), vehicle: saline with Tween-80) was 95 % of control; the T/C (dose: 200.0 mg/kg/injection, schedule: Q01DX005 (ip), vehicle: saline with Tween-80) was 87 % of control.
As to `CC(/C=C/c1ccccc1)=N\NC(=S)Nc1ccc(Cl)cc1`, the T/C is 108 % of control (dose: 100.0 mg/kg/injection, schedule: Q04DX002 (ip), vehicle: Klucel (hydroxypropylcellulose) (HPC)); 107 % of control (dose: 200.0 mg/kg/injection, schedule: Q04DX002 (ip), vehicle: Klucel (hydroxypropylcellulose) (HPC)); 108 % of control (dose: 400.0 mg/kg/injection, schedule: Q04DX002 (ip), vehicle: Klucel (hydroxypropylcellulose) (HPC)).
Consider `O=C(CCC(=O)Nc1ccc2[nH]c3ccccc3c(=O)c2c1)Nc1ccc2[nH]c3ccccc3c(=O)c2c1`, for which the T/C is, setting by setting: (dose: 60.0 mg/kg/injection, schedule: Q01DX005 (ip), vehicle: Klucel (hydroxypropylcellulose) (HPC)) 99 % of control; (dose: 120.0 mg/kg/injection, schedule: Q01DX005 (ip), vehicle: Klucel (hydroxypropylcellulose) (HPC)) 96 % of control; (dose: 240.0 mg/kg/injection, schedule: Q01DX005 (ip), vehicle: Klucel (hydroxypropylcellulose) (HPC)) 97 % of control.
Take `Oc1cc2c3c(c1)c1cc4c(cc1c[n+]3CC2)OCO4`: the T/C (dose: 6.25 mg/kg/injection, schedule: Q01DX009 (ip), vehicle: other) was 151 % of control; the T/C (dose: 10.0 mg/kg/injection, schedule: Q01DX005 (ip), vehicle: acid diluted with saline) is 119 % of control; the T/C (dose: 12.5 mg/kg/injection, schedule: Q01DX009 (ip), vehicle: other) was 155 % of control; the T/C (dose: 20.0 mg/kg/injection, schedule: Q01DX005 (ip), vehicle: acid diluted with saline) was 119 % of control; the T/C (dose: 25.0 mg/kg/injection, schedule: Q01DX009 (ip), vehicle: other) was 164 % of control.
As to `CC(C)(C)n1nnnc1Cl`, the T/C is 107 % of control under setting [1]; 102 % of control under setting [2]; 107 % of control (dose: 200.0 mg/kg/injection, schedule: Q01DX009 (ip), vehicle: Klucel (hydroxypropylcellulose) (HPC)).
As to `CCOC(=N)N1[C@H](C)[C@@H]1C`, the T/C (dose: 12.5 mg/kg/injection, schedule: Q01DX005 (ip), vehicle: Klucel (hydroxypropylcellulose) (HPC)) was 109 % of control; the T/C (dose: 25.0 mg/kg/injection, schedule: Q01DX005 (ip), vehicle: Klucel (hydroxypropylcellulose) (HPC)) was 124 % of control; the T/C (dose: 50.0 mg/kg/injection, schedule: Q01DX005 (ip), vehicle: saline) was 86 % of control.
With `Cc1ncn2ncnc2c1C`, the T/C by setting is: (dose: 25.0 mg/kg/injection, schedule: Q04DX003 (ip), vehicle: saline with Tween-80) 103 % of control; (dose: 50.0 mg/kg/injection, schedule: Q04DX003 (ip), vehicle: saline with Tween-80) 104 % of control; (dose: 100.0 mg/kg/injection, schedule: Q04DX003 (ip), vehicle: saline with Tween-80) 101 % of control and 93 % of control.
Turning to `CCC[CH2][Sn](=[O])[c]1ccccc1`, the T/C runs as follows: (dose: 12.5 mg/kg/injection, schedule: Q04DX002 (ip), vehicle: saline with Tween-80) 100 % of control and 119 % of control; (dose: 25.0 mg/kg/injection, schedule: Q04DX002 (ip), vehicle: saline with Tween-80) 103 % of control and 106 % of control; (dose: 50.0 mg/kg/injection, schedule: Q04DX002 (ip), vehicle: saline with Tween-80) 103 % of control and 109 % of control; under setting [3], 103 % of control and 116 % of control.
For the molecule `CC1OC(OC2C(Oc3cc(O)c4c(c3)O[C@H](c3ccc(O)cc3)CC4=O)OC(CO)C(O)C2O)C(O)C(O)C1O` (stereo not given in full), the T/C runs as follows: under setting [4], 97 % of control; under setting [5], 97 % of control; under setting [6], 101 % of control.
Turning to `O=C(O)c1ccccc1[Se](=O)(=O)O`, the T/C is, setting by setting: under setting [7], 98 % of control; under setting [8], 100 % of control; under setting [9], 112 % of control.
Turning to `CSC(=S)n1nc(-c2ccccc2)c(N=Nc2cccc(C)c2C)c1C`, the T/C by setting is: under setting [3], 88 % of control; (dose: 200.0 mg/kg/injection, schedule: Q04DX002 (ip), vehicle: saline with Tween-80) 90 % of control; (dose: 400.0 mg/kg/injection, schedule: Q04DX002 (ip), vehicle: saline with Tween-80) 112 % of control.
Regarding `Cc1ccc2[nH]c(N(C)C)nc2c2nc(Cl)nc1-2`, the T/C reads like this: (dose: 8.25 mg/kg/injection, schedule: Q01DX005 (ip), vehicle: saline) 108 % of control; (dose: 16.5 mg/kg/injection, schedule: Q01DX005 (ip), vehicle: saline) 103 % of control; (dose: 33.0 mg/kg/injection, schedule: Q01DX005 (ip), vehicle: saline) 100 % of control; (dose: 66.0 mg/kg/injection, schedule: Q01DX005 (ip), vehicle: saline) 97 % of control.
In the case of `COc1cc(CC(N)C(C)=O)cc(OC)c1OC` (stereo not given), the T/C runs as follows: under setting [7], 99 % of control; under setting [8], 100 % of control; under setting [9], 100 % of control.
For the molecule `COC(=O)NC1C(=O)OC(C2OC2(C)C)C1(C)C` (stereo not given), the T/C is, setting by setting: (dose: 60.0 mg/kg/injection, schedule: Q01DX005 (ip), vehicle: saline with Tween-80) 101 % of control and 100 % of control; (dose: 120.0 mg/kg/injection, schedule: Q01DX005 (ip), vehicle: saline with Tween-80) 101 % of control and 99 % of control; (dose: 240.0 mg/kg/injection, schedule: Q01DX005 (ip), vehicle: saline with Tween-80) 100 % of control and 99 % of control.
On to `C/C=C/C#CC#C/C=C/C=C/CC`, for which the T/C was 104 % of control (dose: 12.5 mg/kg/injection, schedule: Q01DX009 (ip), vehicle: Klucel (hydroxypropylcellulose) (HPC)); 98 % of control (dose: 25.0 mg/kg/injection, schedule: Q01DX009 (ip), vehicle: Klucel (hydroxypropylcellulose) (HPC)); 103 % of control under setting [1]; 98 % of control under setting [2].
For the molecule `[CH3][Ge]([CH3])=[O]`, the T/C is, setting by setting: under setting [7], 102 % of control; under setting [8], 91 % of control; under setting [9], 100 % of control.
In the case of `CC(CN)c1ccccc1` (stereo not given), the T/C (dose: 12.5 mg/kg/injection, schedule: Q01DX009 (ip), vehicle: saline) was 111 % of control; the T/C (dose: 25.0 mg/kg/injection, schedule: Q01DX009 (ip), vehicle: saline) was 101 % of control; the T/C under setting [7] was 101 % of control and 103 % of control.
`NC(N)=NN=C(C1CC1)C1CC1`: the T/C under setting [4] was 100 % of control, the T/C under setting [5] is 98 % of control and the T/C under setting [6] is 103 % of control.
